Assays:
U-2 OS = assay: MTS cytotoxic assay, U-2 OS; assay type: cell-based; conditions: Homo sapiens, U2OS, 72 h
Source text: (§1) If not indicated otherwise, the cell lines were purchased from the American Type Culture Collection (ATCC). […] K562 is the erythroid-myeloid precursor cell line derived from chronic myeloid leukemia carrying the BCR-ABL hybrid gene. A549, MCF-7, PC-3, 5637, U-2 OS, and MiaPaCa-2 are cells derived from lung, breast, prostate, bladder carcinoma, osteosarcoma, and pancreatic adenocarcinoma, respectively. HEK 293T are transformed human embryonic kidney cells, and L929 (Sigma, St. Louis, MS, USA) are transformed mouse fibroblasts. HCT116, cells from colorectal carcinoma, and their p53 gene knock-out variant (HCT116p53-/-) were purchased from Horizon Discovery. This cell line is a model of human tumors bearing p53 loss-of-function mutations or biallelic deletion of the p53 gene, frequently associated with poor prognosis. The MRC-5 and BJ cells were used as noncancerous cells; more specifically, they are human fibroblasts from the lungs and foreskin, respectively. According to the supplier’s recommendations, all cells were cultured at 37 °C in a 5% CO2 atmosphere and 100% humidity. The culture media used were: DMEM, RPMI 1640, and MEM (according to a cell line); all were supplemented with 5 g L^−1 glucose, 10% fetal calf serum, 2 mM glutamine, 100 U mL^−1 penicillin, 100 µg mL^−1 streptomycin, and NaHCO3. Cells were passaged every two or three days using 0.25% trypsin plus 0.01% EDTA (ethylenediamine tetraacetic acid) in phosphate-buffered saline.
(§2) To evaluate compound cytotoxicity, cells were seeded in 384-well microtiter plates in a volume of […]. The next day, aliquots of the tested derivatives were transferred with Echo550 acoustic liquid handler (Labcyte) to obtain dose response curves with dilution factor 4. The experiments were performed in technical duplicates and three or more biological replicates. After 72 h of incubation in a humidified incubator, […] of the MTS/PMS stock solution were pipetted into each well. After another 1–4 h of incubation, the absorbance at 490 nm was measured using an EnVision Multilabel Plate Reader (PerkinElmer).

HCT116 = assay: MTS cytotoxic assay, HCT116; assay type: cell-based; conditions: Homo sapiens, HCT-116, 72 h
Source text: as §1, §2

MCF-7 = assay: MTS cytotoxic assay, MCF-7; assay type: cell-based; conditions: Homo sapiens, MCF7, 72 h
Source text: as §1, §2

A549 = assay: MTS cytotoxic assay, A549; assay type: cell-based; conditions: Homo sapiens, A549, 72 h
Source text: as §1, §2

HEK 293T = assay: MTS cytotoxic assay, HEK 293T; assay type: cell-based; conditions: Homo sapiens, HEK-293T, 72 h
Source text: as §1, §2

CCRF-CEM cells [1] = assay: BrDU incorporation analysis (DNA synthesis); assay type: cell-based, human; conditions: % of positive cells
Experimental: The cells were cultured in the same way as the cell cycle analysis method. Just before harvesting, 5-bromo-2′-deoxyuridine (BrDU) of 10 µM concentration was added to the cells for pulse-labeling for 30 min. Then, the cells were fixed with −20 °C cold 70% ethanol and stored in a freezer for 16 h. Before antibody staining, the samples were incubated on ice for 30 min, washed once with phosphate-buffered saline (PBS), and re-suspended in 2 M of HCl for 30 min at room temperature to hydrolyze their DNA. After neutralization with 0.1 M of Na2B4O7 (borax) solution, the cells were washed with PBS containing 0.5% Tween-20 and 1% BSA. This was followed by staining with the primary anti-BrDU antibody (Exbio) for 30 min at room temperature. Then, the cells were washed with PBS and stained with a secondary anti-mouse antibody conjugated to fluorescein isothiocyanate (Merck-Sigma, St. Louis, MS, USA) at room temperature in the dark. After another washing with PBS and incubation with propidium iodide (0.1 mg·mL^−1) and RNAse A (0.5 mg·mL^−1) for 1 h at room temperature in the dark, the cells were analyzed by flow cytometry using a 488 nm laser (FACSCalibur, Becton Dickinson, Franklin Lakes, NJ, USA).

PC-3 = assay: MTS cytotoxic assay, PC-3; assay type: cell-based; conditions: Homo sapiens, PC-3, 72 h
Source text: as §1, §2

CCRF-CEM cells [2] = assay: Cell cycle arrest and cell death analysis by flow cytometry (propidium iodide, pH3Ser10); assay type: cell-based, human; conditions: % of positive cells
Experimental: Together with the CG-treated cells, a vehicle-treated sample was harvested at the same time point. After 24 h, the cells were washed with cold phosphate-buffered saline, fixed dropwise in 70% ethanol, and stored overnight at −20 °C. The cells were then washed with hypotonic citrate buffer, treated with RNAse (50 µg mL^−1), and stained with propidium iodide. Flow cytometry using a 488 nm laser (FACS-Calibur, Becton Dickinson, NJ, USA) was used for measurement. The cell cycle was analyzed by the ModFitLT program (Verity), and apoptosis was measured in a logarithmic model expressing the percentage of particles with a lower propidium content than cells in the G0/G1 phase (<G1) of the cell cycle in the CellQuest program (Becton Dickinson). Half of the sample was used to label cells with pH3^Ser10-FITC antibody (Exbio) for subsequent flow cytometry analysis of mitotic cells.

CCRF-CEM cells [3] = assay: BrU incorporation analysis (RNA synthesis); assay type: cell-based, human; conditions: % of positive cells
Experimental: The cells were cultured and processed as described above. Before harvesting, the cells were pulse-labeled with 1 mM of 5-bromouridine (BrU) for 30 min. The cells were then fixed in 1% buffered paraformaldehyde with 0.05% NP-40 at room temperature for 15 min, and then stored at 4 °C overnight. Before measurement, they were washed with 1% glycine in PBS, washed again with PBS, and stained with primary anti-BrdU antibody cross-reactive to BrU (Exbio) for 30 min at room temperature in the dark. From this point on, the experiment was performed exactly as in the method described above.

5637 = assay: MTS cytotoxic assay, 5637; assay type: cell-based; conditions: Homo sapiens, 72 h
Source text: as §1, §2

CCRF-CEM = assay: MTS cytotoxic assay, CCRF-CEM; assay type: cell-based; conditions: Homo sapiens, 72 h
Source text: as §1, §2

MRC-5 = assay: MTS cytotoxic assay, MRC-5; assay type: cell-based; conditions: Homo sapiens, MRC5, 72 h
Source text: as §1, §2

L929 = assay: MTS cytotoxic assay, L929; assay type: cell-based, mouse; conditions: Mus musculus, L929, 72 h
Source text: as §1, §2

MiaPaCa-2 = assay: MTS cytotoxic assay, MiaPaCa-2; assay type: cell-based; conditions: Homo sapiens, MIA PaCa-2, 72 h
Source text: as §1, §2

Structure (SMILES): C[C@H]1O[C@@H](O[C@H]2[C@@H](O)C[C@H](O[C@H]3[C@@H](O)C[C@H](O[C@H]4CC[C@@]5(C)[C@H](CC[C@@H]6[C@@H]5CC[C@]5(C)[C@@H](C7=CC(=O)OC7)CC[C@]65O)C4)O[C@@H]3C)O[C@@H]2C)C[C@H](O)[C@@H]1O [Dg, digitoxin]
- IC50 (U-2 OS): 45 ± 2.1 nM
- IC50 (HCT116): 20 ± 1.5 nM
- IC50 (MCF-7): 78 ± 1.1 nM
- IC50 (A549): 19 ± 2 nM
- IC50 (HEK 293T): 69 ± 2.1 nM
- BrDU (CCRF-CEM cells [1]; 1 × IC50, 24 h): 35.91%
- BrDU (CCRF-CEM cells [1]; 5 × IC50, 24 h): 23.52%
- IC50 (PC-3): 69 ± 2.2 nM
- < G1 (apoptotic cells) (CCRF-CEM cells [2]; 1 × IC50, 24 h): 7.56%
- G0/G1 (CCRF-CEM cells [2]; 1 × IC50, 24 h): 33.21%
- G2/M (CCRF-CEM cells [2]; 1 × IC50, 24 h): 30.51%
- M (Phospho-Histone3 (Ser10)) (CCRF-CEM cells [2]; 1 × IC50, 24 h): 1.97%
- S (CCRF-CEM cells [2]; 1 × IC50, 24 h): 36.28%
- < G1 (apoptotic cells) (CCRF-CEM cells [2]; 5 × IC50, 24 h): 10.35%
- G0/G1 (CCRF-CEM cells [2]; 5 × IC50, 24 h): 33.71%
- G2/M (CCRF-CEM cells [2]; 5 × IC50, 24 h): 44.03%
- M (Phospho-Histone3 (Ser10)) (CCRF-CEM cells [2]; 5 × IC50, 24 h): 1.28%
- S (CCRF-CEM cells [2]; 5 × IC50, 24 h): 22.26%
- BrU (CCRF-CEM cells [3]; 1 × IC50, 24 h): 42.99%
- BrU (CCRF-CEM cells [3]; 5 × IC50, 24 h): 3.88%
- IC50 5637: 58 ± 1.6 nM
- IC50 (CCRF-CEM): 20 ± 3.5 nM
- IC50 (MRC-5): 78 ± 1.9 nM
- IC50 (L929): > 10000 nM
- IC50 (MiaPaCa-2): 79 ± 2.8 nM

Source: PMC7827417, “Steroid Glycosides Hyrcanoside and Deglucohyrcanoside: On Isolation, Structural Identification, and Anticancer Activity” (Foods, 2021)
